Data taken from patent US12357641B2, “Identification of oleanolic acid and plant extract for glucose-6-phosphate dehydrogenase-related disorders including Bag3opathy” (Hong Kong Baptist University, priority 2022, dated 2025).

Assays:
[1] = system: G6PD; assay: Oleanolic acid treatment in normal mice: G6PD protein by ELISA in serum, heart muscle and skeletal muscle; type: in vivo, mouse; settings: for G6PD protein in heart muscle: control 0.36±0.26 ng/mg; for G6PD protein level in serum: control 1.79±0.99 ng/mL
Experimental: BAG3 P209-KI mice were reproduced by mating between the P209L/+ male and female mice. All mice were maintained with free access to food and water in plastic cages at 22±2° C. and kept on a 12-h light/dark cycle. Animal welfare and experimental procedures were carried out in accordance with the related ethical regulations of Yunnan Minzu University. […] Heart muscle and skeletal muscle samples were obtained after cardiac perfusion with cold PBS. Muscle tissues were lysed into homogenate in ice-cold lysis buffer (150 mM NaCl, 50 mM Tris, pH7.5, 1% NP-40, 0.1% sodium deoxycholate) plus 1 mM PMSF. Samples were then sonicated on ice and centrifuged at 10,000 g for 5 min. The concentration of G6PD in serum, heart muscle, and skeletal muscle were determined by G6PD Elisa Kit (Catalog #: SEA716Mu, Cloud-Clone Corp. USA) following the manufacturer's instruction. The plate was read at 450 nm by the microplate reader (iMark, Biorad, USA). The concentration of the total protein from tissue samples was determined by the spectrophotometer (NanoDrop One, Thermo Scientific, USA).
Seventeen normal male C57BL/6 mice, 6-8 weeks of age, were purchased from Hunan SJA Laboratory Animal Co., Ltd (Changsha, China). They were maintained with free access to food and water in plastic cages at 22±2° C. and kept on a 12-h light/dark cycle. Animal welfare and experimental procedures were carried out in accordance with the related ethical regulations of Yunnan Minzu University. Mice were randomly divided into one control group (n=6) and two dug treatment groups (n=5, 6). Oleanolic acid was suspended in 0.5% carboxymethylcellulose sodium (CMC-Na) solution with the concentration of 10 and 2.5 mg/mL. In the control and drug treatment groups, 0.5% CMC-Na and oleanolic acid (50, 200 mg/kg/day) was given orally for 10 days, respectively. On the 11th day, mice were sacrificed, and the serum and tissue samples were prepared and detected as the method described previously.

[2] = system: G6PD; assay: Oleanolic acid treatment in Bag3opathy patient: serum G6PD protein by ELISA; type: in vivo, human; settings: oral capsules 180 mg/day for three months, before treatment 0.09 ng/mL, normal girls 7.25±9.38 ng/mL
Experimental: The concentration of G6P in serum was determined by High Sensitivity G6P Assay Kit (Catalog #: K687-100, BioVision, Inc. USA) following the manufacturer's instruction. Briefly, a volume of 200 μL of samples was deproteinized with 10 kDa MWCO spin filter prior to the reaction. After adding 50 μL of the appropriate reaction mix into each 50 μL of filtrate, the reaction was incubated for 5 min at 37° C. and protected from light. Finally, the concentration of G6P was calculated according the fluorescence intensity (λex=535/λem=587) measured by fluorometer (EnVision 2104 Multilabel Reader, PerkinElmer, USA). The serum levels of G6PD (SEA716Hu, Cloud-Clone Corp), GPI, catalase (CAT), thioredoxin (TXN), and superoxide dismutase 1 (SOD1) were measured by Elisa Kits purchased from Cloud-Clone Crop Inc. (USA). Serum samples were diluted 100 folds in PBS for measurements of CAT and TXN, and were diluted 800 folds for SOD1 test. The activity of PGM was determined by Colorimetric Assay Kit from BioVision (Inc. USA). Samples were prepared and measured at 450 nm by Elisa reader (Benchmark Plus, BioRad, USA) depending on the manufacturer's instructions.
The Bag3opathy patient (body weight of patient: 40 kg) was orally administrated with Chinese medicine supplements containing oleanolic acid (180 mg per day) to evaluate the effects of treatment on BAG3 associated MFM for 3 months. […]

[3] = system: creatine kinase-MB (CK-MB); assay: Oleanolic acid treatment in Bag3opathy patient: creatine kinase-MB (cardiac marker) in blood; type: in vivo, human; settings: oral capsules 180 mg/day for three months, before treatment 24 U/L
Experimental: The Bag3opathy patient (body weight of patient: 40 kg) was orally administrated with Chinese medicine supplements containing oleanolic acid (180 mg per day) to evaluate the effects of treatment on BAG3 associated MFM for 3 months. 3 mL serum was collected for analysis before and after the treatment. The trial was approved the Ethics Committee of Hong Kong Baptist University (HASC/15-16/0268) according to the principles of the Declaration of Helsinki, and obtained the consent form.

In the case of CC1(C)CC[C@]2(C(=O)O)CC[C@]3(C)C(=CC[C@@H]4[C@@]5(C)CC[C@H](O)C(C)(C)[C@@H]5CC[C@]43C)[C@@H]2C1 [oleanolic acid, Oleanolic acid], the “G6PD protein in skeletal muscle” value ([1]; oral 50 mg/kg daily for ten days, control 0.11±0.04 ng/mg, p=0.035) is reported as 0.19 ± 0.04 ng/mg, the “G6PD protein in heart muscle” value ([1]; oral 50 mg/kg daily for ten days, p=0.36) is reported as 0.54 ± 0.32 ng/mg and the “G6PD protein level in serum” value ([1]; oral 50 mg/kg daily for ten days, p=0.140) is reported as 3.74 ± 1.91 ng/mL. For the same molecule, the “G6PD protein in heart muscle” value ([1]; oral 200 mg/kg daily for ten days, p=0.011) was 0.93 ± 0.43 ng/mg, the “G6PD protein level in serum” value ([1]; oral 200 mg/kg daily for ten days, p=0.049) was 4.47 ± 3.07 ng/mL and the “serum G6PD protein after treatment” value [2] was 2.43 ng/mL. For the same molecule, the “creatine kinase-MB (CK-MB) after treatment” value [3] was 16 U/L.
